Test: activity coefficient (dimensionless); of the first substance listed, at infinite dilution; xn = mol fraction of the nth substance listed
Settings: 101 kPa, Liquid, Chromatography, x1 = 0

For `CO` [methanol] + CCCC[n+]1ccccc1.O=S(=O)([N-]S(=O)(=O)C(F)(F)F)C(F)(F)F, the activity coefficient (302.7 K) was 2, the activity coefficient (313.4 K) was 1.73 and the activity coefficient (323.1 K) was 1.56. For the same compound, the activity coefficient (333.1 K) was 1.39, the activity coefficient (343.1 K) was 1.25 and the activity coefficient (353.3 K) was 1.12.
Compound `Cc1ccccc1C` [1,2-dimethylbenzene] + CCCCC[n+]1ccccc1.O=S(=O)([N-]S(=O)(=O)C(F)(F)F)C(F)(F)F has an activity coefficient (303.1 K) of 1.57, an activity coefficient (312.8 K) of 1.61 and an activity coefficient (323.4 K) of 1.63. The activity coefficient (333.4 K) was 1.65, the activity coefficient (343.3 K) was 1.66 and the activity coefficient (353.5 K) was 1.69.
`CCCCCCCCC` [nonane] + CC[n+]1ccccc1.O=S(=O)([N-]S(=O)(=O)C(F)(F)F)C(F)(F)F showed an activity coefficient (302.8 K) of 86.1, an activity coefficient (313.3 K) of 74.3 and an activity coefficient (323.1 K) of 63.4. The activity coefficient (333 K) was 51.7, the activity coefficient (342.9 K) was 42.2 and the activity coefficient (353 K) was 33.8.
For `C1CCCCC1` [cyclohexane] + CCCCC[n+]1ccccc1.O=S(=O)([N-]S(=O)(=O)C(F)(F)F)C(F)(F)F, the activity coefficient (303.2 K) was 7.35, the activity coefficient (312.7 K) was 6.67 and the activity coefficient (323.4 K) was 5.91. The activity coefficient (333.3 K) was 5.3, the activity coefficient (343.3 K) was 4.66 and the activity coefficient (353.3 K) was 4.06.
For `CCCCC` [pentane] + CCCC[n+]1ccccc1.O=S(=O)([N-]S(=O)(=O)C(F)(F)F)C(F)(F)F, the activity coefficient (302.8 K) was 5.66, the activity coefficient (312.4 K) was 4.83 and the activity coefficient (323.2 K) was 3.92. The activity coefficient (333 K) was 3.44, the activity coefficient (343.4 K) was 2.66 and the activity coefficient (353.4 K) was 2.24.
For `CCCO` [propan-1-ol] + CCCC[n+]1ccccc1.O=S(=O)([N-]S(=O)(=O)C(F)(F)F)C(F)(F)F, the activity coefficient (303.4 K) was 3.31, the activity coefficient (313.3 K) was 2.82 and the activity coefficient (323.2 K) was 2.52. It also gave an activity coefficient (333.1 K) of 2.25, an activity coefficient (343.1 K) of 2.03 and an activity coefficient (353 K) of 1.84.
Work on `C=CCCCCCC` [oct-1-ene] + CC[n+]1ccccc1.O=S(=O)([N-]S(=O)(=O)C(F)(F)F)C(F)(F)F yielded an activity coefficient (302.6 K) of 36.6, an activity coefficient (313.2 K) of 31.5 and an activity coefficient (323.2 K) of 27.2. For the same compound, the activity coefficient (332.8 K) was 23.7, the activity coefficient (342.9 K) was 19.8 and the activity coefficient (353 K) was 16.7.
In the case of `c1ccccc1` [benzene] + CC[n+]1ccccc1.O=S(=O)([N-]S(=O)(=O)C(F)(F)F)C(F)(F)F, the activity coefficient (302.6 K) is reported as 1.5, the activity coefficient (313 K) is reported as 1.49 and the activity coefficient (323.2 K) is reported as 1.47. It also gave an activity coefficient (333.1 K) of 1.43, an activity coefficient (343 K) of 1.39 and an activity coefficient (353.1 K) of 1.36.
In the case of `CC1CCCCC1` [methylcyclohexane] + CC[n+]1ccccc1.O=S(=O)([N-]S(=O)(=O)C(F)(F)F)C(F)(F)F, the activity coefficient (302.8 K) is reported as 17.8, the activity coefficient (313.3 K) is reported as 15 and the activity coefficient (323.1 K) is reported as 12.8. It also gave an activity coefficient (333 K) of 10.8, an activity coefficient (342.9 K) of 9.01 and an activity coefficient (353 K) of 7.49.
`C#CCCCC` [1-hexyne] + CC[n+]1ccccc1.O=S(=O)([N-]S(=O)(=O)C(F)(F)F)C(F)(F)F gave an activity coefficient (302.5 K) of 5.26, an activity coefficient (313.2 K) of 4.95 and an activity coefficient (323 K) of 4.63. The activity coefficient (333 K) was 4.18, the activity coefficient (342.9 K) was 3.88 and the activity coefficient (353 K) was 3.47.
For `C#CCCCCCC` [1-octyne] + CC[n+]1ccccc1.O=S(=O)([N-]S(=O)(=O)C(F)(F)F)C(F)(F)F, the activity coefficient (302.5 K) was 12.9, the activity coefficient (313.2 K) was 12.3 and the activity coefficient (323 K) was 11.8. The activity coefficient (333 K) was 11.1, the activity coefficient (342.9 K) was 10.4 and the activity coefficient (353 K) was 9.74.
For `C1CCCCC1` [cyclohexane] + CCCC[n+]1ccccc1.O=S(=O)([N-]S(=O)(=O)C(F)(F)F)C(F)(F)F, the activity coefficient (302.9 K) was 9.66, the activity coefficient (312.4 K) was 8.64 and the activity coefficient (323.2 K) was 7.88. It also gave an activity coefficient (333.2 K) of 6.7, an activity coefficient (343.3 K) of 5.61 and an activity coefficient (353.4 K) of 4.72.
`C1CCCCC1` [cyclohexane] + CC[n+]1ccccc1.O=S(=O)([N-]S(=O)(=O)C(F)(F)F)C(F)(F)F gave an activity coefficient (302.8 K) of 11.4, an activity coefficient (313.3 K) of 9.56 and an activity coefficient (323.1 K) of 8.04. It also gave an activity coefficient (333 K) of 6.76, an activity coefficient (342.9 K) of 5.63 and an activity coefficient (353 K) of 4.65.
With `C#CCCCCCC` [1-octyne] + CCCCC[n+]1ccccc1.O=S(=O)([N-]S(=O)(=O)C(F)(F)F)C(F)(F)F the activity coefficient (302.8 K) was 5.62, the activity coefficient (313.6 K) was 5.47 and the activity coefficient (323.4 K) was 5.34. It also gave an activity coefficient (333.3 K) of 5.22, an activity coefficient (343.4 K) of 5.07 and an activity coefficient (353.3 K) of 4.94.
`CCCCCC` [hexane] + CCCC[n+]1ccccc1.O=S(=O)([N-]S(=O)(=O)C(F)(F)F)C(F)(F)F gave an activity coefficient (302.8 K) of 11.9, an activity coefficient (312.4 K) of 10.4 and an activity coefficient (323.2 K) of 8.58. It also gave an activity coefficient (332.8 K) of 7.59, an activity coefficient (343.3 K) of 5.85 and an activity coefficient (353.4 K) of 4.75.
Work on `CO` [methanol] + CCCCC[n+]1ccccc1.O=S(=O)([N-]S(=O)(=O)C(F)(F)F)C(F)(F)F yielded an activity coefficient (302.8 K) of 1.62, an activity coefficient (313.5 K) of 1.46 and an activity coefficient (323.4 K) of 1.31. The activity coefficient (333.3 K) was 1.18, the activity coefficient (343.2 K) was 1.06 and the activity coefficient (353.4 K) was 0.94.
Work on `c1ccccc1` [benzene] + CCCC[n+]1ccccc1.O=S(=O)([N-]S(=O)(=O)C(F)(F)F)C(F)(F)F yielded an activity coefficient (302.8 K) of 1.33, an activity coefficient (312.6 K) of 1.34 and an activity coefficient (323.2 K) of 1.35. The activity coefficient (333.2 K) was 1.35, the activity coefficient (343.1 K) was 1.35 and the activity coefficient (353.3 K) was 1.36.
Compound `Cc1ccccc1C` [1,2-dimethylbenzene] + CCCC[n+]1ccccc1.O=S(=O)([N-]S(=O)(=O)C(F)(F)F)C(F)(F)F has an activity coefficient (302.8 K) of 2.22, an activity coefficient (312.5 K) of 2.25 and an activity coefficient (323.3 K) of 2.26. It also gave an activity coefficient (333.3 K) of 2.28, an activity coefficient (343.2 K) of 2.28 and an activity coefficient (353.2 K) of 2.3.
`CCc1ccccc1` [ethylbenzene] + CC[n+]1ccccc1.O=S(=O)([N-]S(=O)(=O)C(F)(F)F)C(F)(F)F gave an activity coefficient (303.4 K) of 3.34, an activity coefficient (313.1 K) of 3.36 and an activity coefficient (323.2 K) of 3.37. The activity coefficient (333.1 K) was 3.39, the activity coefficient (343 K) was 3.4 and the activity coefficient (353.1 K) was 3.41.
With `CCCCCCCC` [octane] + CC[n+]1ccccc1.O=S(=O)([N-]S(=O)(=O)C(F)(F)F)C(F)(F)F the activity coefficient (302.8 K) was 52.9, the activity coefficient (313.3 K) was 43.5 and the activity coefficient (323.1 K) was 36. It also gave an activity coefficient (333 K) of 29.1, an activity coefficient (342.9 K) of 23.4 and an activity coefficient (353 K) of 18.5.
For `Cc1ccc(C)cc1` [1,4-dimethylbenzene] + CCCCC[n+]1ccccc1.O=S(=O)([N-]S(=O)(=O)C(F)(F)F)C(F)(F)F, the activity coefficient (303.1 K) was 1.74, the activity coefficient (312.7 K) was 1.79 and the activity coefficient (323.5 K) was 1.81. For the same compound, the activity coefficient (333.4 K) was 1.84, the activity coefficient (343.3 K) was 1.87 and the activity coefficient (353.3 K) was 1.91.
For `Cc1cccc(C)c1` [1,3-dimethylbenzene] + CC[n+]1ccccc1.O=S(=O)([N-]S(=O)(=O)C(F)(F)F)C(F)(F)F, the activity coefficient (302.8 K) was 3.07, the activity coefficient (313.2 K) was 3.09 and the activity coefficient (323.2 K) was 3.1. For the same compound, the activity coefficient (333.1 K) was 3.11, the activity coefficient (343 K) was 3.12 and the activity coefficient (353.1 K) was 3.13.
Compound `Cc1cccc(C)c1` [1,3-dimethylbenzene] + CCCCC[n+]1ccccc1.O=S(=O)([N-]S(=O)(=O)C(F)(F)F)C(F)(F)F has an activity coefficient (303 K) of 1.76, an activity coefficient (312.8 K) of 1.8 and an activity coefficient (323.5 K) of 1.81. The activity coefficient (333.4 K) was 1.84, the activity coefficient (343.3 K) was 1.87 and the activity coefficient (353.3 K) was 1.91.
Compound `CCCCCC` [hexane] + CC[n+]1ccccc1.O=S(=O)([N-]S(=O)(=O)C(F)(F)F)C(F)(F)F has an activity coefficient (302.8 K) of 13.8, an activity coefficient (313.3 K) of 10.8 and an activity coefficient (323.1 K) of 8.59. For the same compound, the activity coefficient (333 K) was 6.86, the activity coefficient (342.9 K) was 5.46 and the activity coefficient (353 K) was 4.38.
For `CO` [methanol] + CC[n+]1ccccc1.O=S(=O)([N-]S(=O)(=O)C(F)(F)F)C(F)(F)F, the activity coefficient (302.5 K) was 1.86, the activity coefficient (313.1 K) was 1.69 and the activity coefficient (323 K) was 1.53. The activity coefficient (332.9 K) was 1.38, the activity coefficient (342.9 K) was 1.26 and the activity coefficient (353 K) was 1.13.
`CCCCC` [pentane] + CC[n+]1ccccc1.O=S(=O)([N-]S(=O)(=O)C(F)(F)F)C(F)(F)F gave an activity coefficient (302.7 K) of 5.79, an activity coefficient (313.3 K) of 4.5 and an activity coefficient (323 K) of 3.59. It also gave an activity coefficient (333 K) of 2.92, an activity coefficient (342.9 K) of 2.36 and an activity coefficient (352.9 K) of 1.95.
In the case of `CCCCCCCC` [octane] + CCCC[n+]1ccccc1.O=S(=O)([N-]S(=O)(=O)C(F)(F)F)C(F)(F)F, the activity coefficient (302.7 K) is reported as 35.4, the activity coefficient (312.5 K) is reported as 32.2 and the activity coefficient (323.2 K) is reported as 29. For the same compound, the activity coefficient (333.3 K) was 23.9, the activity coefficient (343.3 K) was 20.4 and the activity coefficient (353.4 K) was 16.8.
Work on `Cc1ccccc1` [toluene] + CC[n+]1ccccc1.O=S(=O)([N-]S(=O)(=O)C(F)(F)F)C(F)(F)F yielded an activity coefficient (303.6 K) of 2.08, an activity coefficient (313.1 K) of 2.09 and an activity coefficient (323.2 K) of 2.1. It also gave an activity coefficient (333.2 K) of 2.11, an activity coefficient (343 K) of 2.12 and an activity coefficient (353.3 K) of 2.13.

From the NIST ThermoML archive (doi:10.1016/j.jct.2010.06.009)
